Measured values reported in the supplement of paper PMC10599287.

Columns and labels:
[1] = compound: CCNC(=O)C#Cc1ccc2c(C(=Nc3ccc(CN(C)C)cc3)c3ccccc3)c(O)[nH]c2c1; test: absolute IC70 (antiproliferative, propidium iodide); higher = less potent; conditions: exposure time: 4 days
Method: (§1)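 Modified propidium iodide survival/proliferation assay in 294 human tumor cell lines (2D monolayer for solid tumors, suspension for hematologic lines) after 4 days of continuous exposure to 10 concentrations in half-log steps from 0.001 to 30 µM. Absolute IC70 was fitted by four-parameter nonlinear regression of T/C × 100 (%) values; 30 µM is the top dose.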

GDC-0623 = compound: O=C(NOCCO)c1ccc2cncn2c1Nc1ccc(I)cc1F [GDC-0623]; test: as above; conditions: exposure time: 4 days
Method: as §1

| Test System | absolute IC70 [1] [nM] | absolute IC70 (GDC-0623) [nM] |
| --- | --- | --- |
| SU-DHL-1 | 406 | > 30000 |
| A-253 | > 30000 | > 30000 |
| FADU | 2260 | > 30000 |
| T47D | 6840 | > 30000 |
| HCC33 | 2050 | > 30000 |
| U-251MG | 1180 | 783 |
| MEC-1 | 34 | > 30000 |
| DAUDI | 10 | > 30000 |
| SK-BR-3 | 4070 | > 30000 |
| PAXF_1998 | 4620 | > 30000 |
| KM20L2 | 186 | 51.8 |
| LXFA_923 | 24400 | > 30000 |
| EVSA-T | 2240 | > 30000 |
| MINO | 10 | > 30000 |
| MEXF_276 | 38 | 8 |
| NCI-H460 | 11 | > 30000 |
| NCI-H69 | 1340 | > 30000 |
| LOU-NH91 | 2140 | > 30000 |
| HT-115 | 14.4 | 57.6 |
| SF295 | 8840 | > 30000 |
| CXF_94 | 554 | 167 |
| SW480 | 101 | 23.9 |
| DU-4475 | 9 | 4 |
| UO-31 | 527 | 1620 |

| Test System | absolute IC70 [1] [nM] | absolute IC70 (GDC-0623) [nM] |
| --- | --- | --- |
| PAXF_1657 | 564 | 260 |
| SW620 | 69 | 10 |
| RXF_393 | 869 | 15100 |
| RXF_2282 | 26 | > 30000 |
| A2780 | 546 | 24400 |
| EM-2 | 277 | 192 |
| SD1 | 4 | > 30000 |
| A498 | 4340 | > 30000 |
| LN-229 | 281 | 102 |
| PANC-1 | 5080 | > 30000 |
| EJM | 2820 | > 30000 |
| OVCAR-8 | 2800 | > 30000 |
| LXFL_529 | 329 | 233 |
| RH-41 | 606 | > 30000 |
| DIFI | 91 | 522 |
| MV4-11 | 8 | 1320 |
| KYSE-180 | 1000 | > 30000 |
| CCRF-CEM | 13 | > 30000 |
| Hep-G2 | 55 | 16500 |
| NALM-33 | 7 | > 30000 |
| KLE | 5420 | > 30000 |
| MEXF_1539 | 39 | 3 |
| MOLM-13 | 8 | 448 |
| GXA_3013 | 3280 | > 30000 |

| Test System | absolute IC70 [1] [nM] | absolute IC70 (GDC-0623) [nM] |
| --- | --- | --- |
| KG-1 | 33 | 25100 |
| LXFA_677 | 269 | 168 |
| LXFA_983 | 202 | 18500 |
| LXFA_623 | 960 | 1010 |
| HH | 1370 | > 30000 |
| GP5d | 80.2 | > 30000 |
| SNB-75 | 1100 | 2680 |
| TT2609-C02 | 18 | 12 |
| MEXF_622 | 227 | 40 |
| MEXF_1829 | 90 | 19 |
| K-562 | 2820 | > 30000 |
| SNU-899 | 515 | 35 |
| HNXF_1859 | 116 | 117 |
| JURL-MK1 | 149 | 11 |
| SW1710 | 525 | 3740 |
| PC-9 | 622 | > 30000 |
| MEXF_1737 | 48 | 11 |
| U-266 | 1700 | > 30000 |
| EGI-1 | 693 | > 30000 |
| MKN45 | 489 | 79 |
| MAXF_401 | 28 | 730 |
| BXF_1036 | 115 | 8 |
| NCI-H1184 | 815 | > 30000 |
| RT112 | 42 | > 30000 |
